ChEMBL document CHEMBL6115048, “Uncovering α-Selectivity for Liver X Receptor Agonists for Lipotoxic Cancer Therapies” (J Med Chem, 2025)

Tests used:
Hep 3B2 = experiment: Antiproliferative activity against human Hep3B cells assessed as reduction in cell viability measured after 5 days in presence of sorafenib by Celltiter-glo assay; format: functional, cell-based; details: for EC50: 120 h
[1] = target: T1, Oxysterols receptor LXR-alpha (Homo sapiens, UniProt Q13133); experiment: Agonist activity at GST-tagged LXRalpha LBD (unknown origin) measured after 6 hrs in presence of fluorescein-TRAP220/DRIP-2 by TR-FRET assay
T1 sequence (Q13133 whole entry): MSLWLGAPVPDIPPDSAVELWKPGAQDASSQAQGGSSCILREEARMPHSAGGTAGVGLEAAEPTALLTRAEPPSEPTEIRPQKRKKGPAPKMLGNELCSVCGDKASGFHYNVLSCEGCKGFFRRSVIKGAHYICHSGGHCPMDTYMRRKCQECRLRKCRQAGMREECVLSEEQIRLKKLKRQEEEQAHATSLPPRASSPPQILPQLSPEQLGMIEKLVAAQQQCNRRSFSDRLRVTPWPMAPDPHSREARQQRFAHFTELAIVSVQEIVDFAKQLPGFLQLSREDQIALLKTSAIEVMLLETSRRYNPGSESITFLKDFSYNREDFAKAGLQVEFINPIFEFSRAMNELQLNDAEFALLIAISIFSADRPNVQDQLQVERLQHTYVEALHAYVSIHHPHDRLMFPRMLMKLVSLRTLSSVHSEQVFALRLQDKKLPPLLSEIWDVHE

[2] = target: T2, Oxysterols receptor LXR-beta (Homo sapiens, UniProt P55055); experiment: Agonist activity at GST-tagged LXRbeta LBD (unknown origin) measured after 6 hrs in presence of fluorescein-TRAP220/DRIP-2 by TR-FRET assay
T2 sequence (P55055 whole entry): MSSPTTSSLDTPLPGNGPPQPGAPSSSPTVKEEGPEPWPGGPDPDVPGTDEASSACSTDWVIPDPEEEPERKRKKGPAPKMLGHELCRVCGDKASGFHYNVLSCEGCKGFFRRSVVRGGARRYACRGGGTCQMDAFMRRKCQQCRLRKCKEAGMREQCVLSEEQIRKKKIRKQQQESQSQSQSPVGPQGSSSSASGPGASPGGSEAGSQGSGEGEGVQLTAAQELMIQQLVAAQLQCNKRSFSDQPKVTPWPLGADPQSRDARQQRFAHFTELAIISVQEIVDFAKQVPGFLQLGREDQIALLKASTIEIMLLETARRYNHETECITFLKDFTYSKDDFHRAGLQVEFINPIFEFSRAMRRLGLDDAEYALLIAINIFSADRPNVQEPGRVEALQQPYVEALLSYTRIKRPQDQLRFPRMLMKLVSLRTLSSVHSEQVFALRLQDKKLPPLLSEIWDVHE

[3] = tested on: Hepatocellular carcinoma organoid; experiment: Antiproliferative activity against C57BL/6 mouse Hepatocellular carcinoma organoids harboring myristoylated Akt1 and overexpressing Myc assessed as reduction in cell viability measured after 5 days in presence of sorafenib by Celltiter-glo assay; format: functional, tissue-based; details: Neoplasm, dose 1-5 µM, time 5.0 day

Row | EC50 [1] | EC50 [2] | Compound | EC50 (Hep 3B2) [nM] | Activity [3] | Activity (Hep 3B2; time 5.0 day)
1 |  |  | COc1ccc(NC2=C(c3ccccc3)C(=O)N(Cc3ccccc3)C2=O)cc1 | 3800 |  | 
2 | Not_active | Not_active | CN1CCN(c2ccc(NC3=C(c4ccccc4)C(=O)N(Cc4ccccc4)C3=O)cc2)CC1 |  |  | 
3 |  |  | O=S(=O)(c1ccccc1)N(CC(F)(F)F)c1ccc(C(O)(C(F)(F)F)C(F)(F)F)cc1 |  | Dose-dependent-effect | 
4 |  |  | O=C(O)Cc1cccc(OCCCN(Cc2cccc(C(F)(F)F)c2Cl)CC(c2ccccc2)c2ccccc2)c1 | 1900 | Dose-dependent-effect | Dose-dependent-effect
5 | Not_active | Not_active | CC(C)(C)OC(=O)NC1CCN(c2ccc(NC3=C(c4ccccc4)C(=O)N(Cc4ccccc4)C3=O)cc2)CC1 |  |  | 
